Three substances from article PMC4960487, “Discovery and characterization of novel small-molecule CXCR4 receptor agonists and antagonists” (Scientific Reports, 2016) can be followed below.

The target of the assay is CXCR4 (Homo sapiens, UniProt P61073). Briefly: fura-2 calcium mobilization in C8161 melanoma cells, antagonism of SDF-1. In kind it is cell-based. A general note: A change in cytosolic calcium serves as a functional read-out for many receptors and channels.
Chain of CXCR4 (P61073 whole entry): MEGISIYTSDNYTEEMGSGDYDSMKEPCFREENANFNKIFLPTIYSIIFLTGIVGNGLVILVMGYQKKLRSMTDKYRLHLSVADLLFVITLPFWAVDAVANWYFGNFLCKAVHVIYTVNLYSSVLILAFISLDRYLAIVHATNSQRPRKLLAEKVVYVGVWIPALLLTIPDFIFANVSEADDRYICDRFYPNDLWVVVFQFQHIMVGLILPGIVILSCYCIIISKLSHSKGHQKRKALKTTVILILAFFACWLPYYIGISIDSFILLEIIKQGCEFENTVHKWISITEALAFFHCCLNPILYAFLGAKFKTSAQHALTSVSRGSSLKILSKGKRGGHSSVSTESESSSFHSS

One may read the IC50 as the concentration that inhibits the measured activity by half. With NUCC-54120, the IC50 was 1 µM.

On to NUCC-388, for which the IC50 is 0.3 µM.

Consider NUCC-392, for which the IC50 is 1 µM.
